This is an account of results in US20080194617A1, “Fused ring compound” (priority 2007, published 2008).

The structures appear in SMILES notation. pEC50: −log10 of the molar value.

The target in the experiment is T1, PPARγ-RXRα heterodimer (Homo sapiens, UniProt P37231).
T1 construct: expressed in transfected cells; host or cells: CHO-K1 (PPARγ:RXRα:4ERPP/CHO-K1)
T1 sequence (P37231 1-505): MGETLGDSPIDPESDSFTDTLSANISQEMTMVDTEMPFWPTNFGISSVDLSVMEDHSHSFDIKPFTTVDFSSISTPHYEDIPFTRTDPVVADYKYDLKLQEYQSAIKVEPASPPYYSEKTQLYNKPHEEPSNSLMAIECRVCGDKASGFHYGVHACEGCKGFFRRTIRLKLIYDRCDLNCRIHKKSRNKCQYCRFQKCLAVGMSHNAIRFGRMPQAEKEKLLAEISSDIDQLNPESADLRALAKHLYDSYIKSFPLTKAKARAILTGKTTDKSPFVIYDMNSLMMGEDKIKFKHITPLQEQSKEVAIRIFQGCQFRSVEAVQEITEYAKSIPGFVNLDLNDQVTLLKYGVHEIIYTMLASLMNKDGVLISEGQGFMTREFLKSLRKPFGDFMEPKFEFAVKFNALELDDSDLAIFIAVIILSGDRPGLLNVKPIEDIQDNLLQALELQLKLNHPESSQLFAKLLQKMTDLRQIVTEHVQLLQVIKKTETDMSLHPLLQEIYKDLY
T1 sequence (P19793 1-462 partner): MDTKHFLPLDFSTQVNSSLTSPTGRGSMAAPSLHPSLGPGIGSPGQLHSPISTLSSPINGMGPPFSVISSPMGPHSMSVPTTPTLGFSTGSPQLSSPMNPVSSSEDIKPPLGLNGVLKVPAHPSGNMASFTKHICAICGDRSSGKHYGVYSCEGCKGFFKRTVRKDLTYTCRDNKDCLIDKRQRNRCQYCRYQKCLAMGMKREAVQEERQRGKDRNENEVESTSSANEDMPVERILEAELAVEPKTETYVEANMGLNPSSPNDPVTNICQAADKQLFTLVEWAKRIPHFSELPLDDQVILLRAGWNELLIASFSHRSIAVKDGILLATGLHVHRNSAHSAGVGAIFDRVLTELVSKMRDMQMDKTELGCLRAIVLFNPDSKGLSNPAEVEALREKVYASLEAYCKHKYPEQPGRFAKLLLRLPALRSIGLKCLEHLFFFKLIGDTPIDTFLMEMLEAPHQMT
The experiment in a line: PPARγ-RXRα heterodimer ligand activity (luciferase reporter assay in PPARγ:RXRα:4ERPP/CHO-K1 cells). Format: cell-based. The note with it: incubated one day with test compound, luciferase induction rate, compound concentration showing 50% of the maximum value of induction rate. The procedure:
The PPARγ:RXRα:4ERPP/CHO-K1 cells described in WO03/099793 were cultured in a Ham F12 medium [manufactured by Life Technologies, Inc., US] containing 10% calf fetal serum [manufactured by Life Technologies, Inc., US], sown in a 96-well white plate [manufactured by Corning Coster Corporation, US] at 1×10^4 cells/well, and incubated overnight in a carbon dioxide gas incubator at 37° C.
Then, the medium was removed from the 96 well white plate, 45 μl of Ham F12 medium containing 0.1% fatty acid-free bovine serum albumin (BSA) and a test compound (5 μl) were added, and the cells were incubated for one day in a carbon dioxide gas incubator at 37° C. The medium was removed, 20 μl of PicaGene 7.5 (manufactured by Wako Pure Chemical Industries, Ltd.) 2-fold diluted with HBSS (HANKS' BALANCED SALT SOLUTION) [manufactured by BIO WHITTAKER, US] was added. After stirring, the luciferase activity was determined using the 1420 ARVO Multilabel Counter [manufactured by PerkinElmer, US].
The induction rate was calculated from the luciferase activity of each test compound based on the luciferase activity of the test compound non-administration group as 1. The test compound concentration and the induction rate were analyzed by PRISM [manufactured by GraphPad Software, Inc., US] to calculate EC50 value (compound concentration showing 50% of the maximum value of induction rate) of the test compound.
(A reporter such as luciferase makes a cellular process visible.)

`CCCCCS(=O)(=O)NC(=O)/C=C/c1c(C)nn(C)c1-c1csc2ccccc12` [Example 6, (2E)-3-[5-(1-benzothien-3-yl)-1,3-dimethyl-1H-pyrazol-4-yl]-N-(pentylsulfonyl)acrylamide]: the pEC50 (in general, the negative decadic logarithm of the EC50, by convention in mol/L) was 7.72.

Consider `CCCCCS(=O)(=O)NC(=O)/C=C/c1c(C)nn(C)c1-n1ccc2ccccc21` [Example 7, potassium {(2E)-3-[5-(1H-indol-1-yl)-1,3-dimethyl-1H-pyrazol-4-yl]prop-2-enoyl}(pentylsulfonyl)azanide], for which the pEC50 is 7.41.

`CCCCCS(=O)(=O)NC(=O)/C=C/c1c(C)nn(C)c1-n1ccc2cccnc21` [Example 9, (2E)-3-[1,3-dimethyl-5-(1H-pyrrolo[2,3-b]pyridin-1-yl)-1H-pyrazol-4-yl]-N-(pentylsulfonyl)acrylamide]: the pEC50 was 7.19. In the case of `CCCCCS(=O)(=O)NC(=O)/C=C/c1c(C)nn(C)c1-c1cccc2cccnc12` [Example 24, (2E)-3-[1,3-dimethyl-5-(quinolin-8-yl)-1H-pyrazol-4-yl]-N-(pentylsulfonyl)acrylamide], the pEC50 is 7.27. In the case of `CCCCCS(=O)(=O)NC(=O)/C=C/c1c(C)nn(C)c1-n1ccc2cc(Cl)ccc21` [Example 27, (2E)-3-[5-(5-chloro-1H-indol-1-yl)-1,3-dimethyl-1H-pyrazol-4-yl]-N-(pentylsulfonyl)acrylamide], the pEC50 was 8.21. Molecule `CCCCCS(=O)(=O)NC(=O)/C=C/c1c(C)nn(C)c1-n1ccc2ccc(C(F)(F)F)cc21` [Example 31, potassium ((2E)-3-{1,3-dimethyl-5-[6-(trifluoromethyl)-1H-indol-1-yl]-1H-pyrazol-4-yl}prop-2-enoyl)(pentylsulfonyl)azanide] gave a pEC50 of 8.26. Turning to `Cc1ccc(S(=O)(=O)NC(=O)/C=C/c2c(C)nn(C)c2-n2ccc3cccnc32)cc1` [Example 33, (2E)-3-[1,3-dimethyl-5-(1H-pyrrolo[2,3-b]pyridin-1-yl)-1H-pyrazol-4-yl]-N-[(4-methylphenyl)sulfonyl]acrylamide], the pEC50 was 7.06. `CCCCCS(=O)(=O)NC(=O)CCc1c(C)nn(C)c1N1CCc2cccnc21` [Example 40, 3-[5-(2,3-dihydro-1H-pyrrolo[2,3-b]pyridin-1-yl)-1,3-dimethyl-1H-pyrazol-4-yl]-N-(pentylsulfonyl)propanamide] gave a negative-log EC50 (pEC50) of 7.92.

`Cc1nn(C)c(-n2ccc3cc(Cl)ccc32)c1/C=C/C(=O)NS(=O)(=O)c1ccco1` [Example 55, (2E)-3-[5-(5-chloro-1H-indol-1-yl)-1,3-dimethyl-1H-pyrazol-4-yl]-N-(2-furylsulfonyl)acrylamide] had a pEC50 of 7.36. The molecule `CCCCCNS(=O)(=O)NC(=O)/C=C/c1c(C)nn(C)c1-n1ccc2cc(Cl)ccc21` [Example 62, (2E)-3-[5-(5-chloro-1H-indol-1-yl)-1,3-dimethyl-1H-pyrazol-4-yl]-N-[(pentylamino)sulfonyl]acrylamide] showed a pEC50 of 7.43. Next, `CCCCCS(=O)(=O)NC(=O)OCCc1c(C)nn(C)c1-n1ccc2cc(Cl)ccc21` [Example 66, 2-[5-(5-chloro-1H-indol-1-yl)-1,3-dimethyl-1H-pyrazol-4-yl]ethyl (pentylsulfonyl)carbamate]: 7.66. To `CCCCCS(=O)(=O)NC(=O)NCCCc1c(C)nn(C)c1-n1ccc2cc(Cl)ccc21` [Example 82, N-[({3-[5-(5-chloro-1H-indol-1-yl)-1,3-dimethyl-1H-pyrazol-4-yl]propyl}amino)carbonyl]pentane-1-sulfonamide] belongs 7.17; to `Cc1nn(C)c(-n2ccc3cc(Cl)ccc32)c1/C=C1\SC(=O)NC1=O` [Example 84, (5Z)-5-{[5-(5-chloro-1H-indol-1-yl)-1,3-dimethyl-1H-pyrazol-4-yl]methylene}-1,3-thiazolidine-2,4-dione], 6.66; to `CCCCNS(=O)(=O)NC(=O)/C=C/c1c(C)nn(C)c1-n1ccc2cc(Cl)ccc21` [Example 99, (2E)-N-[(butylamino)sulfonyl]-3-[5-(5-chloro-1H-indol-1-yl)-1,3-dimethyl-1H-pyrazol-4-yl]acrylamide], 7.62. To `Cc1nn(C)c(-n2ccc3cc(Cl)ccc32)c1CCS(=O)(=O)NC(=O)OCC1CC1` [Example 189, cyclopropylmethyl ({2-[5-(5-chloro-1H-indol-1-yl)-1,3-dimethyl-1H-pyrazol-4-yl]ethyl}sulfonyl)carbamate] belongs 7.27. As to `CCCCOC(=O)NS(=O)(=O)CCc1c(C(F)(F)F)nn(C)c1-n1ccc2cc(Cl)cnc21` [Example 197, butyl ({2-[5-(5-chloro-1H-pyrrolo[2,3-b]pyridin-1-yl)-1-methyl-3-(trifluoromethyl)-1H-pyrazol-4-yl]ethyl}sulfonyl)carbamate], the pEC50 is 7.07.

`CCCCCS(=O)(=O)NC(=O)/C=C/c1c(C)nn(C)c1-n1ccc2cc(C)cnc21` [Example 232, (2E)-3-[1,3-dimethyl-5-(5-methyl-1H-pyrrolo[2,3-b]pyridin-1-yl)-1H-pyrazol-4-yl]-N-(pentylsulfonyl)acrylamide] gave a pEC50 of 7.82. Take `Cc1nn(C)c(-n2ccc3cc(Cl)cnc32)c1/C=C/C(=O)NS(=O)(=O)NCC1CC1` [Example 264, (2E)-3-[5-(5-chloro-1H-pyrrolo[2,3-b]pyridin-1-yl)-1,3-dimethyl-1H-pyrazol-4-yl]-N-{[(cyclopropylmethyl)amino]sulfonyl}acrylamide]: the pEC50 was 7.59. To `CCCCNC(=O)NS(=O)(=O)CCc1c(C2CC2)nn(C)c1-n1ccc2cc(Cl)cnc21` [Example 279, N-[(butylamino)carbonyl]-2-[5-(5-chloro-1H-pyrrolo[2,3-b]pyridin-1-yl)-3-cyclopropyl-1-methyl-1H-pyrazol-4-yl]ethanesulfonamide] belongs 7.22; to `CCCCS(=O)(=O)NC(=O)/C=C/c1c(C)nn(C)c1-n1ccc2cc(Cl)cnc21` [Example 283, (2E)-N-(butylsulfonyl)-3-[5-(5-chloro-1H-pyrrolo[2,3-b]pyridin-1-yl)-1,3-dimethyl-1H-pyrazol-4-yl]acrylamide], 7.85. On to `CCCCNC(=O)NS(=O)(=O)CCc1c(C)nn(C)c1-n1ccc2cc(C(F)(F)F)cnc21` [Example 294, N-[(butylamino)carbonyl]-2-{1,3-dimethyl-5-[5-(trifluoromethyl)-1H-pyrrolo[2,3-b]pyridin-1-yl]-1H-pyrazol-4-yl}ethanesulfonamide], for which the pEC50 is 7.49. In turn, `CCCCOC(=O)NS(=O)(=O)CCc1c(C)nn(C)c1-n1ccc2cc(C(F)(F)F)cnc21` [Example 295, butyl [(2-{1,3-dimethyl-5-[5-(trifluoromethyl)-1H-pyrrolo[2,3-b]pyridin-1-yl]-1H-pyrazol-4-yl}ethyl)sulfonyl]carbamate] showed a pEC50 of 7.66.
